Literature values, collected in US7071337B2, “Benzoimidazole derivatives useful as antiproliferative agents” (Pfizer Inc, priority 2002, dated 2006).

Tests used:
[1] = system: transplanted human mammary carcinoma that expresses epidermal growth factor receptor tyrosine kinase (EGFR); conditions: athymic nude mice
[2] = system: another carcinoma that does not express the EGF receptor; conditions: athymic nude mice

Structure (SMILES): O=CN/C=C/c1cc(O)ccc1O [erbstatin]
- growth of transplanted human mammary carcinoma expressing EGFR [1]: selectively attenuates the growth
- growth of carcinoma not expressing the EGF receptor [2]: without effect on the growth
